Experimental data published in ChEMBL document CHEMBL5512632, “Unlocking the potential of 1,4-naphthoquinones: A comprehensive review of their anticancer properties” (Eur J Med Chem, 2024).

Key:
HEC-1-A = test: Cytotoxicity against human HEC-1-A cells incubated for 48 hrs by MTT assay; type: functional, cell-based
SK-MEL-28 = test: Cytotoxicity against human SK-MEL-28 cells incubated for 48 hrs by MTT assay; type: functional, cell-based; conditions: SK-MEL-28, 48 h
Calu-1 = test: Cytotoxicity against human Calu-1 cells incubated for 48 hrs by MTT assay; type: functional, cell-based; conditions: Calu-1, 48 h
MDA-MB-231 = test: Cytotoxicity against human MDA-MB-231 cells incubated for 48 hrs by XTT assay; type: functional, cell-based; conditions: MDA-MB-231, 48 h
MOLT-3 = test: Cytotoxicity against human MOLT-3 cells incubated for 48 hrs by XTT assay; type: functional, cell-based; conditions: MOLT-3, 48 h
A549 [1] = test: Cytotoxicity against human A549 cells incubated for 20 hrs by MTT assay; type: functional, cell-based; conditions: A549, 20 h
MCF7 [2] = test: Growth inhibition of human MCF7 cells by Sulforhodamine B assay; type: functional
UACC-62 = test: Growth inhibition of human UACC-62 cells by Sulforhodamine B assay; type: functional
TK-10 = test: Growth inhibition of human TK-10 cells by Sulforhodamine B assay; type: functional
PC-3 = test: Growth inhibition of human PC-3 cells by Sulforhodamine B assay; type: functional
HT-29 = test: Antiproliferative activity against human HT-29 cells assessed as reduction in cell viability incubated for 24 hrs by MTT assay; type: functional, cell-based; conditions: HT-29, 24 h
A549 [3] = test: Antiproliferative activity against human A549 cells assessed as inhibition of cell growth incubated for 24 hrs by trypan blue exclusion assay; type: functional, cell-based; conditions: A549, 24 h
Huh-7 = test: Antiproliferative activity against human Huh-7 cells assessed as inhibition of cell growth incubated for 24 hrs by MTT assay; type: functional, cell-based; conditions: Huh-7, 24 h
Hep 3B2 = test: Antiproliferative activity against human Hep3B cells assessed as inhibition of cell growth incubated for 24 hrs by MTT assay; type: functional, cell-based
HepG2 = test: Antiproliferative activity against human HepG2 cells assessed as inhibition of cell growth incubated for 24 hrs by MTT assay; type: functional, cell-based; conditions: HepG2, 24 h
[4] = Antiproliferative activity against human LA-N-1 cells assessed as inhibition of cell growth incubated for 48 hrs by MTT assay; type: functional, cell-based; conditions: LAN1, 48 h
[5] = Antiproliferative activity against human NB-39-nu cells assessed as inhibition of cell growth incubated for 48 hrs by MTT assay; type: functional, cell-based
IMR-32 = test: Antiproliferative activity against human IMR-32 cells assessed as inhibition of cell growth incubated for 48 hrs by MTT assay; type: functional, cell-based; conditions: IMR-32, 48 h
SK-N-SH = test: Antiproliferative activity against human SK-N-SH cells assessed as inhibition of cell growth incubated for 48 hrs by MTT assay; type: functional, cell-based
HeLa [6] = test: Cytotoxicity against human HeLa cells assessed as inhibition of cell growth incubated for 48 hrs by MTT assay; type: functional, cell-based
A549 [7] = test: Cytotoxicity against human A549 cells assessed as inhibition of cell growth incubated for 48 hrs by MTT assay; type: functional, cell-based; conditions: A549, 48 h
DU-145 [8] = test: Cytotoxicity against human DU-145 cells assessed as inhibition of cell growth incubated for 48 hrs by MTT assay; type: functional, cell-based; conditions: DU-145, 48 h
MCF7 [9] = test: Cytotoxicity against human MCF7 cells assessed as inhibition of cell growth incubated for 48 hrs by MTT assay; type: functional, cell-based; conditions: MCF7, 48 h
B16 = test: Cytotoxicity against mouse B16 cells assessed as inhibition of cell growth incubated for 48 hrs by MTT assay; type: functional, cell-based; conditions: B16, 48 h
RD = test: Antiproliferative activity against human RD cells assessed as inhibition of cell growth incubated for 24 hrs by celltiter blue reagent based fluorimetric analysis; type: functional
DU-145 [10] = test: Antiproliferative activity against human DU-145 cells assessed as inhibition of cell growth incubated for 24 hrs by celltiter blue reagent based fluorimetric analysis; type: functional; conditions: DU-145, 24 h
A549 [11] = test: Antiproliferative activity against human A549 cells assessed as inhibition of cell growth incubated for 24 hrs by celltiter blue reagent based fluorimetric analysis; type: functional; conditions: A549, 24 h
HeLa [12] = test: Antiproliferative activity against human HeLa cells assessed as inhibition of cell growth incubated for 24 hrs by sulforhodamine B assay; type: functional, cell-based
SCC-25 = test: Cytotoxicity against human SCC-25 cells assessed as inhibition of cell growth incubated for 48 hrs by MTT reagent based spectrophotometric analysis; type: functional; conditions: SCC-25, 48 h
SCC-4 = test: Cytotoxicity against human SCC-4 cells assessed as inhibition of cell growth incubated for 48 hrs by MTT reagent based spectrophotometric analysis; type: functional; conditions: SCC-4, 48 h
SCC-9 = test: Cytotoxicity against human SCC-9 cells assessed as inhibition of cell growth incubated for 48 hrs by MTT reagent based spectrophotometric analysis; type: functional; conditions: SCC-9, 48 h
SiHa = test: Antiproliferative activity against human SiHa cells assessed as inhibition of cell growth by crystal violet staining based spectrophotometric assay; type: functional
C-33-A = test: Antiproliferative activity against human C-33-A cells assessed as inhibition of cell growth by crystal violet staining based spectrophotometric assay; type: functional
[13] = Antiproliferative activity against human CaLo cells assessed as inhibition of cell growth by crystal violet staining based spectrophotometric assay; type: functional

Which IC50 (HEC-1-A) does the source give for O=C1C(Cl)=C(NCCN2CCOCC2)C(=O)c2ccccc21 here?
The IC50 was 14.5 µM.

What about the IC50 (SK-MEL-28) of the same compound?
Its IC50 is 10.3 µM.

What about the IC50 (Calu-1) of the same compound?
The IC50 was 4.39 µM.

With Cc1ccc(NC2=C(Cl)C(=O)c3ccccc3C2=O)cc1 as the compound, how does the IC50 (MDA-MB-231) read?
Its IC50 is 10.7 µM.

What about the IC50 (MOLT-3) of the same compound?
Its IC50 is 4.3 µM.

With O=C1C(Cl)=C(Nc2ccccc2)C(=O)c2ccccc21 as the compound, how does the IC50 (A549 [1]) read?
The IC50 was 5.8 µM.

For O=C1C(Sc2ccc3ccccc3c2)=C(Sc2ccc3ccccc3c2)C(=O)c2ccccc21, which GI50 (MCF7 [2]) is on record?
Its GI50 is 7.75 µM.

What about the GI50 (UACC-62) of the same compound?
Its GI50 is 9.92 µM.

What about the GI50 (TK-10) of the same compound?
The GI50 was 8.26 µM.

What about the GI50 (PC-3) of the same compound?
Its GI50 is 7.21 µM.

Which IC50 (HT-29) does the source give for CCOC(=O)c1cn(C2=CC(=O)c3ccccc3C2=O)nn1 here?
Its IC50 is 3.2 µM.

With CCCC[S+]([O-])C1=CC(=O)c2ccccc2C1=O (centres undefined) as the compound, how does the IC50 (A549 [3]) read?
Its IC50 is 2.08 µM.

Which IC50 (Huh-7) does the source give for CCCCCCCC[S+]([O-])C1=CC(=O)c2ccccc2C1=O (centres undefined) here?
The IC50 was 1.96 µM.

What about the IC50 (Hep 3B2) of the same compound?
The IC50 was 0.96 µM.

What about the IC50 (HepG2) of the same compound?
Its IC50 is 8.56 µM.

Which results are given for COCCSC1=C(C)C(=O)c2ccccc2C1=O?
IC50 [4]: 1.55 µM; IC50 [5]: 10.7 µM; IC50 (IMR-32): 2.43 µM; IC50 (SK-N-SH): 3.45 µM

For CCc1ccc(-c2cn(CCNC3=C(C)C(=O)c4ccccc4C3=O)nn2)cc1, which IC50 (HeLa [6]) is on record?
The IC50 was 26.2 µM.

What about the IC50 (A549 [7]) of the same compound?
The IC50 was 9.19 µM.

And the IC50 (DU-145 [8])?
Its IC50 is 8.02 µM.

And the IC50 (MCF7 [9])?
The IC50 was 8.73 µM.

What about the IC50 (B16) of the same compound?
Its IC50 is 20.2 µM.

Which IC50 (RD) does the source give for O=C1C=C(CCCCCCCCCC[P+](c2ccccc2)(c2ccccc2)c2ccccc2)C(=O)c2ccccc21 here?
The IC50 was 0.02 µM.

What about the IC50 (DU-145 [10]) of the same compound?
Its IC50 is 0.4 µM.

What about the IC50 (A549 [11]) of the same compound?
Its IC50 is 0.5 µM.

For O=C1C(Cl)=C(Nc2ccc(O)cc2)C(=O)c2ccccc21, which IC50 (HeLa [12]) is on record?
The IC50 was 3.2 µM.

With COC(=O)N(Cc1ccccc1)C(C1=C(O)C(=O)c2ccccc2C1=O)c1ccc(Cl)cc1 (centres undefined) as the compound, how does the IC50 (SCC-25) read?
Its IC50 is 87.3 µM.

What about the IC50 (SCC-4) of the same compound?
Its IC50 is 92.8 µM.

And the IC50 (SCC-9)?
The IC50 was 56.2 µM.

What does the source list for O=C1C(Cl)=C(NC(Cc2ccc(O)cc2)C(=O)O)C(=O)c2ccccc21 (centres undefined)?
IC50 (SiHa): 6.83 µM; IC50 (C-33-A): 0.001 µM; IC50 [13]: 2.87 µM
